Values quoted from earlier work, collected in patent publication US20090312688A1, “IONTOPHORESIS DRUG DELIVERY FORMULATION PROVIDING ACCEPTABLE SENSATION AND DERMAL ANESTHESIA” (Vyteris, Inc., priority 2005, published 2009).

conditions: iontophoresis in vitro across human skin

Cumulative delivery relative to lidocaine, slightly greater delivery:
CCCN(CC)C(CC)C(=O)Nc1c(C)cccc1C (stereo not drawn) [etidocaine]
CCCNC(C)C(=O)Nc1ccccc1C (stereo not drawn) [prilocaine]
CCN(CC)CCOC(=O)c1ccc(N)cc1 [procaine]
